Data set [1] is described as follows: Reaction kinetics of cysteine-reactive compounds with N-acetyl-L-cysteine methyl ester (LC-MS). The data set is classed as physicochemical. The conditions noted are these: for calculated rate constant, fold faster than NAIA: reaction with N-Ac-Cys-OMe 250 μM; for time to complete reaction with N-acetylcysteine methyl ester: PBS/MeOH 4:1. The method, then: Reaction Kinetics of Cysteine-Reactive Compounds with N-Acetyl-L-Cysteine Methyl Ester
Stock solution of cysteine-reactive compound in DMSO was diluted by PBS/MeOH solution mixture (4:1, v/v; 500 μL), reaching final concentration of 10 μM. Stock solution of N-acetyl-L-cysteine methyl ester in DMSO was then freshly prepared, and added to the compound solution at final concentration of 250 μM. The solution mixture was incubated at room temperature, and at predetermined time intervals, an aliquot of the reaction mixture (10 μL) was sent for LC-MS analysis on Waters Autopurification System using a SunFire C18 HPLC column (50×4.6 mm with 5 μm diameter particles, Waters). Separation was achieved by gradient elution from 5% to 100% MeCN in water (constant 0.1 vol % formic acid) over 4 min, isocratic elution with 100% MeCN (with 0.1 vol % formic acid) from 4 to 8 min, and returning to 5% MeCN in water (with 0.1 vol % formic acid) and equilibrated for 2 min. Selected ion chromatograms, with m/z corresponding to the molecular ion of the compound and/or the adduct, were extracted and the data was analyzed using MassLynx™ software by calculating the area under the curve. The peak area was then calibrated to concentration of the compound/adduct by a set of solution mixtures containing known concentrations of the compound/adduct.
The reactivity of NAIA with cysteine in aqueous buffer solution has been investigated by LC-MS experiments (FIGS. 1A-1J). […] Upon addition of N-acetylcysteine methyl ester (250 μM), NAIA-5 reacted quickly and completely with N-acetylcysteine methyl ester within […], as reflected by the diminishment of the peak of NAIA-5 at t=6.20 min with a concomitant growth of a new peak at t=5.60 min in the LC, which is attributable to the cysteine adduct of NAIA-5 based on the MS (FIGS. 1B-1G). […] This highlights the important contribution of aromaticity of indole scaffold to increase electrophilicity of acrylamide warhead for fast and complete cysteine reaction in aqueous buffer solution.
Next, we monitored the reaction between NAIA-amide (10 μM) and N-acetylcysteine methyl ester (250 μM) by LC-MS analysis (FIG. 17A). Complete conversion of NAIA-C5 amide was observed within 40 s as indicated by the disappearance of NAIA-C5 amide peak (t=5.09 min) and emergence of the adduct peat (t=4.80 min) in the LC trace (FIG. 17B). Likewise, the reaction of NAIA-C4 amide proceeded with fast kinetics and was completely consumed in 1 min (FIG. 17C). The calculated rate constant of NAIA-C5 amide and NAIA-C4 amide were 2-fold and 1.2-fold faster than NAIA (FIG. 17D). […] Owning to the excellent reaction rate of NAIA-C5 amide, it was taken forward for further comparative analysis in subsequent experiments.

Data set [2] in a line: Selectivity for reacting with Cys over other amino acids (LC-MS). The data set is classed as physicochemical. The conditions noted are these: compound 10 μM, amino acid 30 μM (3 equiv.), 30 min, PBS/MeOH 4:1. The protocol:
Selectivity of NAI for Reacting with Cys Over Other Amino Acids
Stock solution of NAIA-4 and NAIA-5, respectively, in DMSO was diluted by PBS/MeOH solution mixture (4:1, v/v; 500 μL), reaching final concentration of 10 μM. Stock solution of amino acid in DMSO was then freshly prepared, and added to the compound solution at final concentration of 30 μM. The solution mixture was incubated at room temperature for 30 min. After that, an aliquot of the reaction mixture (10 μL) was sent for LC-MS analysis. Selected ion chromatograms, with m/z=325 corresponding to [NAIA-4+H]^+ or [NAIA-5+H]^+, were extracted and analyzed by integrating the area under curve.
(§1) As fast-reacting probes are often susceptible to hydrolysis, we sought to investigate the aqueous stability of NAIA-C5 amide. […] Taking the excellent reaction kinetics and a mere 14% degradation in 30 min into account, NAIA-C5 amide was considered to be a useful tool in cysteine profiling (FIG. 17C and FIG. 17F).

The nature of data set [3]: Stability in aqueous buffer solution over time (LC-MS). The data set is classed as physicochemical. The method, then: Stability of NAIA-5 in Aqueous Buffer Solution Over Time
NAIA-5 (10 μM) was dissolved in PBS/MeOH solution mixture (4:1, v/v; 500 μL) and stay at room temperature. At predetermined time intervals, an aliquot of the reaction mixture (10 μL) was sent for LC-MS analysis on Waters Autopurification System using a SunFire C18 HPLC column (50×4.6 mm with 5 μm diameter particles, Waters). Separation was achieved by gradient elution from 5% to 100% MeCN in water (constant 0.1 vol % formic acid) over 4 min, isocratic elution with 100% MeCN (with 0.1 vol % formic acid) from 4 to 8 min and returning to 5% MeCN in water (with 0.1 vol % formic acid) and equilibrated for 2 min. Selected ion chromatograms, with m/z=325 corresponding to [NAIA-5+H]^+, were extracted and analyzed by integrating the area under curve.
as §1

Another data set has as its system HCT116 cell lysates. Kind of data set: Gel-based ABPP, Cys labeling of HCT116 cell lysates. The data set is classed as biochemical. The method, then:
FIGS. 18A-18B Gel-based ABPP analysis of NAIA-amides, NAIA-5 and IAA on Cys labeling of HCT116 cell lysates in vitro. HCT116 cell lysates (100 μg) were incubated with the compounds at indicated concentrations and time intervals, following by CuAAC reaction with azide-fluor 545 (25 μM). The labeled proteins were then boiled with sampling buffer, and read out by in-gel fluorescence after SDS-PAGE.
Confirming the reaction between NAIA-C5 amide and cysteine in vitro, we moved on to evaluate its application for cysteine profiling in complex biological sample. To assess this, we performed gel-based ABPP in cell lysates and in live cells. HCT116 cell lysates were incubated with IAA, NAIA and NAIA-Amide, followed by installation of fluorophore by click chemistry. Then, the labelled proteins were resolved by SDS-PAGE and visualized by their in-gel fluorescence. […] In time-dependent experiments, a 15-minute incubation of NAIA-C5 amide with HCT116 cell lysates was sufficient to have decent labeling, highlighting its quick labeling (FIG. 18B).

The test system of a further data set is 231MFP cell lysates. Briefly: Gel-based ABPP, Cys labeling of 231MFP cell lysates (in-gel fluorescence). The data set is classed as biochemical. The conditions noted are these: 30 min incubation. The method, then: FIGS. 10A-10D. Gel-based ABPP experiments of NAIA-4 to investigate its ability to label Cys in cell lysates and live cells. (FIGS. 10A-10B) 231MFP cell lysates (20 μg) were incubated with NAIA-4 or IAA at indicated concentrations for 30 min, following by CuAAC reaction with azide-fluor 545 (5 μM). The labeled proteins were then boiled with sampling buffer, and read out by in-gel fluorescence after SDS-PAGE. Quantified data were shown in average±s.e.m. from n=3 replicates/group. Statistical significance vs untreated control is expressed as *p<0.05; ***p<0.001, and vs different treatment groups is expressed as “p<0.01; ^###p<0.001. (FIGS. 10C-10D) 231MFP cells were pre-treated with NAIA-4 or IAA at indicated concentrations for 1 h. […] The cell lysates were labeled with azide-fluor 545 (25 μM) by CuAAC reaction, and the labeled protein were detected by in-gel fluorescence after SDS-PAGE. Quantified data were shown in average±s.e.m. from n=3 biological replicates/group. Statistical significance is expressed as *p<0.05; ***p<0.001.
In-Gel Fluorescence for Visualizing Cys Labeling by NAIAs and IAA In Vitro
HepG2 or 231MFP cells were lysed by probe sonication in DPBS, and cell debris were removed by centrifugation at 1,000 g for 5 min. Protein concentration of the lysates was determined by bicinchoninic acid (BCA) assay, and the lysates were then diluted to 2 mg/mL by DPBS. […]

Data set [4] has as its system 231MFP cells. Kind of data set: Gel-based ABPP, Cys labeling in live 231MFP cells. The conditions noted are these: 1 h pre-treatment. The data set is classed as cell-based. The protocol: FIGS. 10A-10D. Gel-based ABPP experiments of NAIA-4 to investigate its ability to label Cys in cell lysates and live cells. (FIGS. 10A-10B) 231MFP cell lysates (20 μg) were incubated with NAIA-4 or IAA at indicated concentrations for 30 min, following by CuAAC reaction with azide-fluor 545 (5 μM). The labeled proteins were then boiled with sampling buffer, and read out by in-gel fluorescence after SDS-PAGE. Quantified data were shown in average±s.e.m. from n=3 replicates/group. Statistical significance vs untreated control is expressed as *p<0.05; ***p<0.001, and vs different treatment groups is expressed as “p<0.01; ^###p<0.001. (FIGS. 10C-10D) 231MFP cells were pre-treated with NAIA-4 or IAA at indicated concentrations for 1 h. The cells were then washed with DPBS and lysed in DPBS by probe sonication. The cell lysates were labeled with azide-fluor 545 (25 μM) by CuAAC reaction, and the labeled protein were detected by in-gel fluorescence after SDS-PAGE. Quantified data were shown in average±s.e.m. from n=3 biological replicates/group. Statistical significance is expressed as *p<0.05; ***p<0.001.
In-Gel Fluorescence for Visualizing Cys Labeling by NAIAs and IAA in Live Cells
231MFP or HepG2 cells were grown in 10-cm plates in complete medium. […] Protein concentration of the lysates was determined by BCA assay, and the lysates were diluted to 2 mg/mL by DPBS. […]

Data set [5] relates to 231MFP cells. Kind of data set: WST-8 cell viability assay. The data set is classed as cell-based. The conditions noted are these: WST-8, 2 h incubation; read-out: IC50 (cytotoxicity). The protocol:
WST-8 Cell Viability Assay of Cells Treated with NAIA-4 or IAA
231MFP cells were plated on 96-well plates (Corning, 3904) at 30,000 cells per well and allowed to grow in complete medium overnight. The cells were then incubated with DMSO solvent control, NAIA-4 or IAA at indicated concentrations for 2 h. The solution was replaced with new culture medium containing 10 μL of WST-8 solution (Abcam; ab228554) and incubated for 2 h in dark at 37° C. Cell viability were then assayed by the absorption at 460 nm on SpectraMax i3 (Molecular Devices).
Background: Formazan colour is commonly taken as a measure of viable cells.

Setting [6] is: compound 10 μM, N-Ac-Cys-OMe 250 μM.

Entries after “also recorded” stand apart in the source; their conditions may differ.

As usually defined, the IC50 is the concentration needed to halve the response being measured.

Take `C#CCCCCNC(=O)c1cccc2c1ccn2C(=O)C=C` [NAIA-C4 amide]: in data set [1] (setting [6]), the “time to complete consumption by N-acetylcysteine methyl ester” value came to 1 min. Further, the “calculated rate constant, fold faster than NAIA” value in data set [1] was 1.2 fold.
Take `C#CCCCCNC(=O)c1cn(C(=O)C=C)c2ccccc12` [NAIA-C3 amide]: the “cysteine reaction rate (in words)” value in data set [1] (setting [6]) is “reacted relatively slower despite it still showed superior reaction kinetics over IAA”.
With `C#CCCCCNC(=O)c1ccc2c(ccn2C(=O)C=C)c1` [NAIA-C5 amide], in data set [1] (setting [6]), the “time to complete reaction with N-acetylcysteine methyl ester” value is reported as no more than 40 s. Moreover, the “calculated rate constant, fold faster than NAIA” value in data set [1] is on record as 2 fold. In addition, in data set [2], the “selectivity toward cysteine over other amino acids” value is “only incubation with cysteine consumed NAIA-C5 amide to an undetectable level”. In data set [3] (10 μM, PBS/MeOH 4:1, room temperature), the “change of compound level in aqueous buffer solution over time (in words)” value is listed as “gradual degradation was observed in 3 hours”. Also, in data set [3] (30 min), the “degradation in aqueous buffer” value was 14%. For the same compound, in the data set on HCT116 cell lysates, the “in-gel fluorescence (in words)” value is reported as “comparable to that by NAIA; also recorded: significantly stronger fluorescence was detected in samples incubated with NAIA or NAIA-C5 amide in a dose-dependent manner” and the “overall in-gel fluorescence intensity, fold higher than IAA” value is given as 3 fold. Besides, in the data set on HCT116 cell lysates (time-dependent experiment), the “incubation time sufficient for decent labeling” value was determined as 15 min.
Consider `C=CC(=O)N1CCc2ccccc21` [NAine, N-acryloylindoline], for which the “reaction kinetics with cysteine (k)” value in data set [1] (FIG. 7 legend summary) is listed as < 10^0 M^−1 s^−1.
As to `C#CCCCCNC(=O)COc1cccc2c1ccn2C(=O)C=C` [NAIA-4], the “time to complete reaction with N-acetylcysteine methyl ester” value in data set [1] (setting [6]) is given as no more than 120 s. In addition, in data set [2], the “selectivity toward cysteine over other amino acids” value was “excellent selectivity toward cysteine over other amino acids; also recorded: Significant decreases in NAIA-4 and NAIA-5 levels were only found in the solution mixture with N-acetyl-L-cysteine methyl ester”. Also, the “cysteine labeling (in-gel fluorescence) compared with IAA” value in the data set on 231MFP cell lysates is on record as “better labeling from NAIA-4 than IAA at all the doses tested”. Also, the “cysteine labeling in live cells (in-gel fluorescence) compared with IAA” value with 231MFP cells [4] was “more labeling of functional cysteines by NAIA-4 than IAA”. For the same compound, the IC50 in the data set on 231MFP cells [5] is greater than 40 µM.

Source of the values: patent publication US20240103005A1, “N-ACRYLOYLINDOLES AND METHODS OF USE” (The University of Hong Kong, priority 2022, published 2024).
